These results are taken from patent US11267822B2, “BET bromodomain protein degraders with cleavable linkers” (THE REGENTS OF THE UNIVERSITY OF MICHIGAN, priority 2017, dated 2022).

Data set [1] in a line: Pharmacokinetics in RS4;11 tumor-bearing mice (plasma and tumor concentrations). The data set is classed as in vivo. The note with it: for Cpd. No. 15 Concentration in plasma: IV 10 mg/kg Cpd. No. 15, RS4;11 tumor-bearing mice. The source says: The pharmacokinetics of Cpd. No. 15 in RS4;11 tumor-bearing mice show it is converted to Cpd. No. 52 in plasma and tumor tissue. BLOQ=below limit of detection; nd=not determined

For another data set, the system named is BET protein. Kind of data set: Pharmacodynamic effect in RS4;11 tumor tissue in mice (BET protein degradation). The data set is classed as in vivo. As to conditions: RS4;11 tumor-bearing mice, intravenous dosing at 10 mg/kg. The source says:
FIG. 1 is an illustration showing the pharmacodynamic effect of Cpd. No. 15 in RS4;11 tumor tissue in mice.
FIG. 2 is an illustration showing the pharmacodynamic effect of Cpd. No. 16 in RS4;11 tumor tissue in mice.
The pharmacodynamic effect of Cpd. No. 15 and Cpd.

The subject of another data set is MOLM13. Nature of the data set: Cell growth inhibition, CellTiter-Glo Luminescent Cell Viability Assay, MOLM13. The class given is cell-based. As to conditions: MOLM13 cells, 4 days. The procedure:
(§1) Cell growth inhibitory activity of representative Compounds of the Disclosure was determined using the CellTiter-Glo® Luminescent Cell Viability Assay. Cells were seeded in 384-well white opaque cell culture plates at a density of 2,000 cells/well with serially diluted compounds and incubated at 37° C. in an atmosphere of 95% air and 5% CO2 for 4 days. Cell viability was determined using the CellTiter-Glo® Luminescent Cell Viability Assay Kit (Promega, Madison, Wis.) according to the manufacture's instruction. Briefly, a volume of CellTiter-Glo® Reagent equal to the volume of cell culture medium was added to each well, and then the plates were incubated at room temperature for 10-20 minutes. The luminescent signal was measured using a Tecan Infinite M1000 multimode microplate reader (Tecan, Morrisville, N.C.). The half maximal inhibitory concentration (IC50) in Table 3 was calculated using the GraphPad Prism 5 software (GraphPad Software, La Jolla, Calif.).

A further data set relates to MDA-MB-231. Kind of data set: Cell growth inhibition, CellTiter-Glo Luminescent Cell Viability Assay, MDA-MB-231. The class given is cell-based. As to conditions: MDA-MB-231 cells, 4 days. Here is the method: as §1

Consider `Cc1nnc2n1-c1sc(C#Cc3cnn(CCCC(=O)OCCCOc4cccc5c4CN(C4CCC(=O)NC4=O)C5=O)c3)c(Cc3ccccc3)c1COC2` (centres unmarked) [Cpd. No. 15, 3-((2-(2,6-dioxopiperidin-3-yl)-1-oxoisoindolin-4-yl)oxy)propyl 4-(4-((3-benzyl-9-methyl-4H,6H-thieno[2,3-e][1,2,4]triazolo[3,4-c][1,4]oxazepin-2-yl)ethynyl)-1H-pyrazol-1-yl)butanoate], for which the “Cpd. No. 15 Concentration in tumor” value in data set [1] (IV 10 mg/kg Cpd. No. 15, 1 h, Mouse 1 L tumor) is given as “BLOQ”; in data set [1] (IV 10 mg/kg Cpd. No. 15, 1 h, Mouse 1 R tumor) it was “BLOQ”; in data set [1] (IV 10 mg/kg Cpd. No. 15, 1 h, Mouse 2 L tumor), “BLOQ”; in data set [1] (IV 10 mg/kg Cpd. No. 15, 1 h, Mouse 2 R tumor) it was “BLOQ”; in data set [1] (IV 10 mg/kg Cpd. No. 15, 3 h, Mouse 1 L tumor), “BLOQ”; in data set [1] (IV 10 mg/kg Cpd. No. 15, 3 h, Mouse 1 R tumor) it was “BLOQ”. Besides, the “Cpd. No. 15 Concentration in tumor” value in data set [1] (IV 10 mg/kg Cpd. No. 15, 3 h, Mouse 2 L tumor) is “BLOQ”; in data set [1] (IV 10 mg/kg Cpd. No. 15, 3 h, Mouse 2 R tumor), “BLOQ”. In addition, the “Cpd. No. 15 Concentration in plasma” value is listed as “BLOQ” in data set [1] (1 h, mouse 1); “BLOQ” in data set [1] (1 h, mouse 2); “BLOQ” in data set [1] (3 h, mouse 1); “BLOQ” in data set [1] (3 h, mouse 2). Further, in data set [1] (RS4;11 tumor-bearing mice, IV 10 mg/kg), the “Conversion (metabolism) in plasma and tumor tissue” value is “converted to Cpd. No. 52 in plasma and tumor tissue”. Further, the “Pharmacodynamic effect: BET protein degradation in tumor tissue” value with BET protein is listed as “induce BET protein degradation in tumor tissue”.
A word on the IC50: it is the concentration needed to halve the response being measured. A higher IC50 goes with weaker potency. As to `Cc1nnc2n1-c1sc(C#Cc3cnn(CCCC(=O)OCCC#Cc4cccc5c4CN(C4CCC(=O)NC4=O)C5=O)c3)c(Cc3ccccc3)c1COC2` (centres unmarked) [Cpd. No. 16, 4-(2-(2,6-dioxopiperidin-3-yl)-1-oxoisoindolin-4-yl)but-3-yn-1-yl 4-(4-((3-benzyl-9-methyl-4H,6H-thieno[2,3-e][1,2,4]triazolo[3,4-c][1,4]oxazepin-2-yl)ethynyl)-1H-pyrazol-1-yl)butanoate], the IC50 in the data set with MOLM13 (Homo sapiens, MOLM-13, 96 h) came to 0.4 nM; in the data set with MOLM13 it was 0.2 nM; in the data set with MDA-MB-231 (Homo sapiens, MDA-MB-231, 96 h), 1.5 nM; with MDA-MB-231, 0.9 nM. In the data set on BET protein, the “Pharmacodynamic effect: BET protein degradation in tumor tissue” value was “induce BET protein degradation in tumor tissue”.
As for `Cc1nnc2n1-c1sc(C#Cc3cnn(CCOC(=O)CCCCc4cccc5c4CN(C4CCC(=O)NC4=O)C5=O)c3)c(Cc3ccccc3)c1COC2` (centres unmarked) [compound 32, 2-(4-((3-benzyl-9-methyl-4H,6H-thieno[2,3-e][1,2,4]triazolo[3,4-c][1,4]oxazepin-2-yl)ethynyl)-1H-pyrazol-1-yl)ethyl 5-(2-(2,6-dioxopiperidin-3-yl)-1-oxoisoindolin-4-yl)pentanoate], the concentration for half-maximal inhibition (IC50) in the data set on MOLM13 (Homo sapiens, MOLM-13, 96 h) was 0.6 nM; in the data set with MDA-MB-231 (Homo sapiens, MDA-MB-231, 96 h), 25.8 nM.
`Cc1nnc2n1-c1sc(C#Cc3cnn(CCOC(=O)CCC#Cc4cccc5c4CN(C4CCC(=O)NC4=O)C5=O)c3)c(Cc3ccccc3)c1COC2` (centres unmarked) [compound 33, 2-(4-((3-benzyl-9-methyl-4H,6H-thieno[2,3-e][1,2,4]triazolo[3,4-c][1,4]oxazepin-2-yl)ethynyl)-1H-pyrazol-1-yl)ethyl 5-(2-(2,6-dioxopiperidin-3-yl)-1-oxoisoindolin-4-yl)pent-4-ynoate]: the IC50 in the data set with MOLM13 amounted to 1.6 nM; in the data set with MDA-MB-231, 35.6 nM.
On to `Cc1nnc2n1-c1sc(C#Cc3cnn(CC(=O)OCCCCc4cccc5c4CN(C4CCC(=O)NC4=O)C5=O)c3)c(Cc3ccccc3)c1COC2` (centres unmarked) [compound 34, 4-(2-(2,6-dioxopiperidin-3-yl)-1-oxoisoindolin-4-yl)butyl 2-(4-((3-benzyl-9-methyl-4H,6H-thieno[2,3-e][1,2,4]triazolo[3,4-c][1,4]oxazepin-2-yl)ethynyl)-1H-pyrazol-1-yl)acetate], for which the IC50 in the data set with MOLM13 (Homo sapiens, MOLM-13, 96 h) came out at 0.7 nM; in the data set with MDA-MB-231 (Homo sapiens, MDA-MB-231, 96 h), 8.4 nM.
As for `Cc1nnc2n1-c1sc(C#Cc3cnn(CC(=O)OCCCc4cccc5c4CN(C4CCC(=O)NC4=O)C5=O)c3)c(Cc3ccccc3)c1COC2` (centres unmarked) [compound 38, 3-(2-(2,6-dioxopiperidin-3-yl)-1-oxoisoindolin-4-yl)propyl 2-(4-((3-benzyl-9-methyl-4H,6H-thieno[2,3-e][1,2,4]triazolo[3,4-c][1,4]oxazepin-2-yl)ethynyl)-1H-pyrazol-1-yl)acetate], the IC50 with MOLM13 (Homo sapiens, MOLM-13, 96 h) was 22 nM; in the data set on MDA-MB-231 (Homo sapiens, MDA-MB-231, 96 h), more than 100 nM.
As to `Cc1nnc2n1-c1sc(C#Cc3cnn(CCCC(=O)OCC#Cc4cccc5c4CN(C4CCC(=O)NC4=O)C5=O)c3)c(Cc3ccccc3)c1COC2` (centres unmarked) [compound 41, 3-(2-(2,6-dioxopiperidin-3-yl)-1-oxoisoindolin-4-yl)prop-2-yn-1-yl 4-(4-((3-benzyl-9-methyl-4H,6H-thieno[2,3-e][1,2,4]triazolo[3,4-c][1,4]oxazepin-2-yl)ethynyl)-1H-pyrazol-1-yl)butanoate], the half-maximal inhibitory concentration (IC50) with MOLM13 (Homo sapiens, MOLM-13, 96 h) was found to be 3.8 nM; in the data set with MDA-MB-231 (Homo sapiens, MDA-MB-231, 96 h), 1.2 nM.
Consider `Cc1nnc2n1-c1sc(C#Cc3ccc(CCCC(=O)OCCN4CCC(Nc5cccc6c5CN(C5CCC(=O)NC5=O)C6=O)CC4)nc3)c(Cc3ccccc3)c1COC2` (centres unmarked) [compound 42, 2-(4-((2-(2,6-dioxopiperidin-3-yl)-1-oxoisoindolin-4-yl)amino)piperidin-1-yl)ethyl 4-(5-((3-benzyl-9-methyl-4H,6H-thieno[2,3-e][1,2,4]triazolo[3,4-c][1,4]oxazepin-2-yl)ethynyl)pyridin-2-yl)butanoate], for which the IC50 in the data set on MOLM13 (Homo sapiens, MOLM-13, 96 h) came out at 5.5 nM; in the data set on MDA-MB-231 (Homo sapiens, MDA-MB-231, 96 h), 4.9 nM.
On the same counts, the results for `Cc1nnc2n1-c1sc(C#Cc3ccc(CCCC(=O)OCCN4CCN(c5cccc6c5C(=O)N(C5CCC(=O)NC5=O)C6=O)CC4)nc3)c(Cc3ccccc3)c1COC2` (centres unmarked) [compound 43, 2-(4-(2-(2,6-dioxopiperidin-3-yl)-1,3-dioxoisoindolin-4-yl)piperazin-1-yl)ethyl 4-(5-((3-benzyl-9-methyl-4H,6H-thieno[2,3-e][1,2,4]triazolo[3,4-c][1,4]oxazepin-2-yl)ethynyl)pyridin-2-yl)butanoate] are more than 100 nM and more than 100 nM.
As for `Cc1nnc2n1-c1sc(C#Cc3cnn(CCCC(=O)OCCN4CCN(c5cccc6c5C(=O)N(C5CCC(=O)NC5=O)C6=O)CC4)c3)c(Cc3ccccc3)c1COC2` (centres unmarked) [compound 44, 2-(4-(2-(2,6-dioxopiperidin-3-yl)-1,3-dioxoisoindolin-4-yl)piperazin-1-yl)ethyl 4-(4-((3-benzyl-9-methyl-4H,6H-thieno[2,3-e][1,2,4]triazolo[3,4-c][1,4]oxazepin-2-yl)ethynyl)-1H-pyrazol-1-yl)butanoate], the concentration for half-maximal inhibition (IC50) was 4.3 nM in the data set on MOLM13 (Homo sapiens, MOLM-13, 96 h) and more than 100 nM with MDA-MB-231 (Homo sapiens, MDA-MB-231, 96 h).
